Results published in the METLIN SMRT retention time set (Domingo-Almenara et al. 2019).

Test: gradient 5% acetonitrile 3 min, to 50% in 2 min, to 85% in 15 min, held 3 min, 100 µL/min
Conditions: column: Zorbax Extend-C18 2.1 x 50 mm; eluents: water / acetonitrile, 0.1% formic acid
How it was run: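 A Zorbax Extend-C18 column (2.1 × 50 mm, 1.8 μm) run at 100 μL/min with water and acetonitrile, both containing 0.1% formic acid, separated mixtures of ~100 pure standards. The HPLC was coupled to a quadrupole time-of-flight mass spectrometer operated in positive and negative ionization mode, with dead and dwell volumes of 40 μL and 900 μL. Each retention time was taken from a computationally picked adduct peak that was then manually inspected.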

Structure (SMILES) | RP-LC retention time [s]
CC(C)NC(=O)C1=CCN(C(=O)c2cccc(F)c2)CC1 | 712
O=S(=O)(Nc1ccc(N2CCOCC2)cc1)c1ccc(-c2nnc(C3CCC3)o2)o1 | 828
Cc1ccccc1CNC(=O)C1(C)Oc2cccnc2N(C)C1=O (stereo not given) | 786
COc1ccc(-c2noc(-c3ccc(N4CCN(c5ncccn5)CC4)nc3)n2)cc1 | 1150
CCc1nc(-c2ccc3c(c2)CCN3C(=O)Cc2ccc(OC)cc2)no1 | 1040
Cc1ccc(-c2cc3c4nnc(SCC(=O)Nc5ccccc5Cl)n4ccn3n2)cc1C | 1020
Cc1noc(C2(NC(=O)c3ccc(C)s3)CCCCC2)n1 | 868
O=C1CCCCC(CNC(=O)c2cccs2)N1 (stereo not given) | 616
COc1ccc(NC(=O)c2[nH]c3cc(C)sc3c2CN(C)C)cc1F | 680
CCCn1cc(S(=O)(=O)NCc2ccc(C)cc2)c2cccnc21 | 951
O=c1ccc(-c2ccc3c(c2)OCO3)nn1CCc1nc(-c2ccc(Br)cc2)no1 | 1050
Cc1ccc(NC(=O)CN2C(=O)CCc3cc(Br)ccc32)cc1 | 931
CCCOc1nc2ccccc2nc1N1CCCC(C(=O)Nc2cc(C)cc(C)c2)C1 (stereo not given) | 1390
Cc1ccc(CCNC(=O)c2ccc3c(c2)NC(=O)C2CCCCN32)cc1 (stereo not given) | 862
O=C(CN1C(=O)C2CCCCN2c2ccc(C(=O)N3CCOCC3)cc21)Nc1ccc(Cl)cc1 (stereo not given) | 832
Cc1ccc(F)cc1NS(=O)(=O)c1cc2n(c1)CCN(CC(C)C)C2=O | 840
Cn1nnc2cc(CNC(=O)c3ccc(F)cc3)ccc21 | 686
CCSCCOC(=O)C1=C(C)NC(=O)NC1c1cccc(OC)c1OC (stereo not given) | 792
O=C1COc2ccc(-c3csc(NC(=O)c4ccco4)n3)cc2N1 | 741
O=C(c1cc(-c2ccncc2)n[nH]1)N1CCCC(C(=O)N2CCN(c3ccc(F)cc3)CC2)C1 (stereo not given) | 615
CCN1CCN(C(=O)Cn2c(=O)c3cnc(-c4ccc(Cl)cc4)nc3n(CC)c2=O)CC1 | 716
CC(C)NC(=O)c1ccc(OCC2CCCN(C(=O)C(C)C)C2)cc1 (stereo not given) | 787
COc1ccc(C(=O)N2CCC3(CC2)NC(=O)c2cc(F)ccc2N3C)cc1 | 730

Structure (SMILES) | RP-LC retention time [s]
O=C(Cc1ccccc1Br)NC1CCN(c2cc(-c3ccc(F)cc3)[nH]n2)C1 (stereo not given) | 752
O=C(NC1CCCCC1)C1CCN(c2cncnc2N2CCCCC2)CC1 | 672
COc1ccc(-c2cc3n(n2)CCCN(C(=O)CCC(=O)c2ccc(F)cc2)C3)cc1 | 879
Cc1ccc(NC(=O)N2CCCC2c2cc(C)no2)cc1 (stereo not given) | 782
COc1ccc(C2(C(=O)N3CC(c4nc(CCOCC5CCOCC5)no4)C3)CC2)cc1 | 812
Cc1cccc2nnc(N3CCC(C(=O)N4CCC(C)CC4)CC3)n12 | 663
CN1C(=O)c2cccnc2Sc2cc(NC(=O)c3ccccc3Cl)ccc21 | 781
O=C(c1cn(-c2cc(N3CCCCC3)ncn2)cn1)N1CCc2ccccc2C1 | 973
O=C(c1cncc(Br)c1)N1CCN(c2ccc(-c3ccco3)nn2)CC1 | 603
COc1ccc(C2CC(=O)N(c3cccc(Cl)c3)C(=O)C2)cc1 | 939
CC(C)Cn1c(=O)c(-c2ccc(C(=O)NCCC3=CCCCC3)cc2)nc2ccccc21 | 1300
COc1ccccc1CCC(=O)NC(C)C(=O)Nc1nc2ccccc2[nH]1 (stereo not given) | 658
CN1CCN(CCCNC(=O)c2cc3occc3c(Nc3ccc(Cl)cc3)n2)CC1 | 620
Cc1nn(CCCC(=O)N2CCN(c3ccccn3)CC2)c(=O)c2cc3occc3n12 | 589
CCOC(=O)C12CC1/C(=N\O)c1ccccc1O2 (stereo not given) | 773
CCCN(C(=O)CC(=O)OC)c1nc(-c2ccc(C)cc2)cs1 | 1160
CC(C)(C)C(=O)N[C@H](Cc1ccccc1)C(=O)NCc1cscn1 | 714
Cc1ccc(CNC(=O)c2ccc3c(c2)CC(=O)N3C)o1 | 693
CC(C)c1cccc(NC(=O)Cn2cnc3nc(N4CCC(C(=O)NC5CC5)CC4)sc3c2=O)c1 | 743
COCCN1CCn2cc(S(=O)(=O)Nc3ccc(C)c(F)c3)cc2C1=O | 740
CCCn1c(=O)c(C)nc2cc(-c3noc(-c4cccc(OC)c4OC)n3)ccc21 | 1140
CCn1cc(C(=O)Nc2ccc(F)c(F)c2)c(S(=O)(=O)N2CCC(C)CC2)n1 | 1170
